# Results taken from US8426148B2, “Label-free methods using a resonant waveguide grating biosensor to determine GPCR signaling pathways” (Corning Incorporated, priority 2007, dated 2013).
# Read-outs that look alike come from different tables or passages of the source.
# How the values were obtained:
# [1] = target: adenylate cyclase; assay: RWG biosensor DMR assay: NECA pretreatment, then forskolin-induced response; type: cell-based, Human; details: quiescent A431 cells; NECA pretreatment 1 h, then 1 μM forskolin; read-out: IC50 of NECA pretreatment against the forskolin-induced response
# Method: (§1) The plate lid was handled automatically by the robotics.
# Similarly, pretreatment of A431 cells with various concentrations of NECA for 1 h desensitizes adenylate cyclase and attenuates the forskolin-induced responses (FIG. 3B). […] Although not limited by theory a possible mechanism of cross-talk between these two pathways is that upon activation of adenylate cyclase by forskolin, cAMP is produced and activates PKA. PKA in turn may phosphorylate the Gs receptors, and cause complete inhibition of the Gs-mediated response. Accordingly, FIGS. 3A and 3B, respectively, illustrate: 3A) forskolin pretreatment on the NECA-induced Gs response; and 3B) of the effects NECA pretreatment on forskolin-induced responses in quiescent A431 cells.
# [2] = tested on: adenylate cyclase; details: read-out: IC50 of histamine pretreatment against the forskolin response, quiescent A431 cells, then 1 μM forskolin, slight inhibition
# Method: (§2) Cell culture—Human epidermoid carcinoma A431 cells (American Type Cell Culture) were grown in Dulbecco's modified Eagle's medium (DMEM) supplemented with 10% fetal bovine serum (FBS), 4.5 g/liter glucose, 2 mM glutamine, and antibiotics. About 1.8×10^4 cells at passage 3 to 8 suspended in 50 μL of the DMEM medium containing 10% FBS were placed in each well of a 384-well microplate, and were cultured at 37° C. under air/5% CO2 for about 1 day, followed by about 20 hr starvation through continuously culturing in the serum-free DMEM.
# (§3) Optical biosensor system and cell assays—CORNING® EPIC® wavelength interrogation system was used. […] Once stable temperature is reached (typically within 1 hr), a sensor microplate is transferred by the robotics into the plate holder directly above the detection system, while a source plate is moved to an appropriate compartment so that it is readily addressable by the on-board liquid handling unit. […]
# (§4) For kinetic assays, the cells were washed with HBSS (Hanks Balanced Salt Solution with 20 mM HEPES) buffer. After 1 hour incubation within the detection system, the sensor plate was scanned and a baseline response was recorded. Then, compound solutions were transferred into the sensor plate using the on-board liquid handling system, and the cell responses were then recorded for another period of time. […]
# [3] = tested on: histamine receptor subtype 1; assay: RWG biosensor DMR assay: U73122 pretreatment, then histamine-induced DMR signal; type: cell-based, Human; details: quiescent A431 cells
# Source text: as §1
# Histamine is a natural agonist for endogenously expressed Gq-coupled receptor histamine receptor subtype 1 in A431 cells.
# [4] = tested on: H1 histamine receptor; assay: RWG biosensor DMR assay: forskolin pretreatment, then histamine-induced Gq response; type: cell-based, Human; details: quiescent A431 cells; forskolin pretreatment 1 h, then 100 nM histamine; read-out: IC50 of forskolin pretreatment, partial inhibition of histamine-induced response
# Method: as §2, §3, §4
smiles,measurement,setting,value
"CCNC(=O)[C@H]1O[C@@H](n2cnc3c(N)ncnc32)[C@H](O)[C@@H]1O [NECA, N-ethyladenosine-5′-uronic acid]",IC50,[1],1.3 nM
"NCCc1c[nH]cn1 [histamine, Histamine]",IC50,[2],301 nM
"COc1ccc2c(c1)CC[C@@H]1[C@@H]2CC[C@]2(C)[C@@H](NCCCCCCN3C(=O)C=CC3=O)CC[C@@H]12 [U73122, 1-[6-[[17β-3-methoxyestra-1,3,5(10)-trien-17-yl]amino]hexyl]-1H-pyrrole-2,5-dione]",effect of U73122 pretreatment on histamine-induced DMR response,"[3]; U73122 0-228 μM, then 1,000 nM histamine",dose-dependent inhibition of the histamine-induced DMR response
same,effect of U73122 at high doses on histamine response (P-DMR amplitude),"[3]; high doses of U73122, 1,000 nM histamine",completely inhibit the histamine response
"C=C[C@@]1(C)CC(=O)[C@]2(O)[C@@]3(C)[C@@H](O)CCC(C)(C)[C@@H]3[C@H](O)[C@H](OC(C)=O)[C@@]2(C)O1 [forskolin, Forskolin]",IC50,[4],~184 nM
